Target: T1, human PDE2A3 enzyme (Homo sapiens, UniProt O00408)
T1 construct: Human PDE2A3 full-length gene was transduced into Sf9; His-tag; made in house; host or cells: Sf9 insect cells
Assay: PDE Enzyme Inhibitory Assay (SPA, [3H]cGMP substrate)
Assay type: biochemical
Conditions: compound 1 μM; [3H]cGMP 77 nM; 60 min at room temperature; read-out: inhibitory rate (%) (1 μM)
Description: PDE Enzyme Inhibitory Assay Human PDE2A3 full-length gene was transduced into Sf9, and human PDE2A3 enzyme was purified by His-tag affinity column and gel filtration. The enzyme was stored at −70° C. until use. PDE activity was measured using a SPA (Scintillation Proximity Assay) (GE Healthcare). To evaluate the inhibitory activity of the compound, 10 μl of serial diluted compounds were reacted with 20 μl of PDE enzyme in assay buffer (50 mM HEPES-NaOH, 8.3 mM MgCl2, 1.7 mM EGTA, 0.1% BSA (pH 7.4)) for 30 min. at room temperature. Final concentration of DMSO in the reaction solution was 1 percent. Compounds were tested in duplicate in 96-well half-area plates (Corning) or 384-well OptiPlate (PerkinElmer). To start the reaction, 10 μl of substrate [^3H] cGMP (final concentration 77 nM, PerkinElmer) was added to a total volume of 40 μl. After reaction for 60 min at room temperature, 20 μl of 20 mg/mL yttrium SPA beads containing zinc sulfate was added to terminate the PDE reaction. After being settled for further 1 hour, the assay plates were counted in a scintillation counter (PerkinElmer) to allow calculation of inhibition rate. Inhibition rate was calculated on the basis of 0% control wells with enzyme and DMSO, and 100% control wells without enzyme.

T1 sequence (O00408 whole entry): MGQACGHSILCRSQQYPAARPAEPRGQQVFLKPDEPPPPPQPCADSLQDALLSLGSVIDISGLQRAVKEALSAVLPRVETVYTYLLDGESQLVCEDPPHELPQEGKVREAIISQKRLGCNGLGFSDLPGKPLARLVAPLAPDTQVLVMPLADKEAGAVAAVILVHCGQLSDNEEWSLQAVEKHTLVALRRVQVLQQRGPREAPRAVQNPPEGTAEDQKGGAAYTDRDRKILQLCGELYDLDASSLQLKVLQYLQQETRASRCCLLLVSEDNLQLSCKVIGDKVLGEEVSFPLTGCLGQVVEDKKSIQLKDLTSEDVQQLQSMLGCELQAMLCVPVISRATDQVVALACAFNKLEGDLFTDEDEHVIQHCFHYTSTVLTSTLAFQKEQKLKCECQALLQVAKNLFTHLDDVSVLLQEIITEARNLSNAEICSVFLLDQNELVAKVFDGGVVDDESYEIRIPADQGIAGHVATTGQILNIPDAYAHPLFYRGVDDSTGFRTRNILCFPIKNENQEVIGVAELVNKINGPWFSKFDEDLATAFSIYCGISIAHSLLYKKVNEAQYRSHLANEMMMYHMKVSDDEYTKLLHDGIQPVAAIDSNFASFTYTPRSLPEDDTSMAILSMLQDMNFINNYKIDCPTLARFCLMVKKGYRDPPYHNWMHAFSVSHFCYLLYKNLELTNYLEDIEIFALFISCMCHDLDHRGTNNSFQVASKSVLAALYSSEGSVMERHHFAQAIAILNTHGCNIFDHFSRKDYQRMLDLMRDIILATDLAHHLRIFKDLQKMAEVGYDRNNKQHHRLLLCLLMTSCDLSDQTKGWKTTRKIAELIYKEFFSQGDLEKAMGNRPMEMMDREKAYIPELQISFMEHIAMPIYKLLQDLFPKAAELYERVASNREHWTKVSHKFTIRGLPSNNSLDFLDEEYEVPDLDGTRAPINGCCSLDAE

Row | inhibition at 1 µM | SMILES
1 | 98% | COCC(NC(=O)c1cnn2ccc(N3CCOCC3)nc12)c1ccc(OC(F)(F)F)c(F)c1 (stereo not drawn) [Example 38, N-(1-(3-fluoro-4-(trifluoromethoxy)phenyl)-2-methoxyethyl)-5-(morpholin-4-yl)pyrazolo[1,5-a]pyrimidine-3-carboxamide]
2 | 100% | CC1(C)CCN(c2ccn3ncc(C(=O)N[C@@H](c4ccc(OC(F)(F)F)cc4)C(C)(C)O)c3n2)C1=O [Example 135, 5-(3,3-dimethyl-2-oxopyrrolidin-1-yl)-N-((1S)-2-hydroxy-2-methyl-1-(4-(trifluoromethoxy)phenyl)propyl)pyrazolo[1,5-a]pyrimidine-3-carboxamide]
3 | 101% | Cc1cn2ncc(C(=O)NC(c3ccc(OC(F)(F)F)c(F)c3)C(C)(C)O)c2nc1N1CCC1 (stereo not drawn) [Example 59, 5-(azetidin-1-yl)-N-(1-(3-fluoro-4-(trifluoromethoxy)phenyl)-2-hydroxy-2-methylpropyl)-6-methylpyrazolo[1,5-a]pyrimidine-3-carboxamide]
4 | 100% | CC(C)(O)[C@@H](NC(=O)c1cnn2ccc(-c3ccccn3)nc12)c1ccc(OC(F)(F)F)cc1 [Example 72, N-((1S)-2-hydroxy-2-methyl-1-(4-(trifluoromethoxy)phenyl)propyl)-5-(pyridin-2-yl)pyrazolo[1,5-a]pyrimidine-3-carboxamide]
5 | 100% | CCN(C)c1ccn2ncc(C(=O)NC(c3ccc(OC(F)(F)F)c(F)c3)C(C)(C)O)c2n1 (stereo not drawn) [Example 29, 5-(ethyl(methyl)amino)-N-(1-(3-fluoro-4-(trifluoromethoxy)phenyl)-2-hydroxy-2-methylpropyl)pyrazolo[1,5-a]pyrimidine-3-carboxamide]
6 | 100% | COC[C@@H](NC(=O)c1cc(=O)[nH]c2cc(C)cnc12)c1ccc(OC(F)(F)F)cc1 [Example 92, N-((1S)-2-methoxy-1-(4-(trifluoromethoxy)phenyl)ethyl)-7-methyl-2-oxo-1,2-dihydro-1,5-naphthyridine-4-carboxamide]
7 | 99% | CC1(C)CN(c2ccn3ncc(C(=O)N[C@@H](c4ccc(OC(F)(F)F)cc4)C(C)(C)O)c3n2)CCO1 [Example 124, 5-(2,2-dimethylmorpholin-4-yl)-N-((1S)-2-hydroxy-2-methyl-1-(4-(trifluoromethoxy)phenyl)propyl)pyrazolo[1,5-a]pyrimidine-3-carboxamide]
8 | 99% | COCC(NC(=O)c1cc(=O)[nH]c2cccnc12)c1ccc(OC(F)(F)F)cc1 (stereo not drawn) [Example 1, N-(2-methoxy-1-(4-(trifluoromethoxy)phenyl)ethyl)-2-oxo-1,2-dihydro-1,5-naphthyridine-4-carboxamide]
9 | 97% | CC(C)(O)[C@@H](NC(=O)c1ccc2cncc(-c3ccccc3)c2n1)c1ccc(OC(F)(F)F)cc1 [Example 164, N-((1S)-2-hydroxy-2-methyl-1-(4-(trifluoromethoxy)phenyl)propyl)-8-phenyl-1,6-naphthyridine-2-carboxamide]
10 | 99% | COC[C@@H](NC(=O)c1cnn2cc(C)cnc12)c1ccc(OC(F)(F)F)c(F)c1 [Example 12, N-((1S)-1-(3-fluoro-4-(trifluoromethoxy)phenyl)-2-methoxyethyl)-6-methylpyrazolo[1,5-a]pyrimidine-3-carboxamide]
11 | 101% | Cc1cn2ncc(C(=O)N[C@@H](c3ccc(OC(F)(F)F)cc3)C(C)(C)O)c2nc1-n1cnc(C(F)(F)F)c1 [Example 79, N-((1S)-2-hydroxy-2-methyl-1-(4-(trifluoromethoxy)phenyl)propyl)-6-methyl-5-(4-(trifluoromethyl)-1H-imidazol-1-yl)pyrazolo[1,5-a]pyrimidine-3-carboxamide]
12 | 100% | CC(C)(O)[C@@H](NC(=O)c1cnn2ccc(-c3ccccc3C#N)nc12)c1ccc(OC(F)(F)F)c(F)c1 [Example 101, 5-(2-cyanophenyl)-N-((1S)-1-(3-fluoro-4-(trifluoromethoxy)phenyl)-2-hydroxy-2-methylpropyl) pyrazolo[1,5-a]pyrimidine-3-carboxamide]
13 | 101% | Cc1cn(-c2ccn3ncc(C(=O)N[C@@H](c4ccc(OC(F)(F)F)cc4)C(C)(C)O)c3n2)cn1 [Example 115, N-((1S)-2-hydroxy-2-methyl-1-(4-(trifluoromethoxy)phenyl)propyl)-5-(4-methyl-1H-imidazol-1-yl)pyrazolo[1,5-a]pyrimidine-3-carboxamide]
14 | 100% | Cc1cn2ncc(C(=O)N[C@@H](c3ccc(OC(F)(F)F)cc3)C(C)(C)O)c2nc1-c1cnn(C(F)F)c1 [Example 83, 5-(1-(difluoromethyl)-1H-pyrazol-4-yl)-N-((1S)-2-hydroxy-2-methyl-1-(4-(trifluoromethoxy)phenyl)propyl)-6-methylpyrazolo[1,5-a]pyrimidine-3-carboxamide]
15 | 100% | Cn1cc(C(=O)N[C@@H](c2ccc(OC(F)(F)F)cc2)C(C)(C)O)c2nc(-c3ccccn3)cc(=O)n21 [Example 77, N-((1S)-2-hydroxy-2-methyl-1-(4-(trifluoromethoxy)phenyl)propyl)-1-methyl-7-oxo-5-(pyridin-2-yl)-1,7-dihydropyrazolo[1,5-a]pyrimidine-3-carboxamide]
16 | 98% | Cn1cc(C(=O)N[C@@H](c2ccc(OC(F)(F)F)c(F)c2)C(C)(C)O)c2nc(C3CC3)cc(=O)n21 [Example 66, 5-cyclopropyl-N-((1S)-1-(3-fluoro-4-(trifluoromethoxy)phenyl)-2-hydroxy-2-methylpropyl)-1-methyl-7-oxo-1,7-dihydropyrazolo[1,5-a]pyrimidine-3-carboxamide]
17 | 101% | CC(C)(O)[C@@H](NC(=O)c1cnn2ccc(-c3cnn(C(F)F)c3)nc12)c1ccc(OC(F)(F)F)cc1 [Example 70, 5-(1-(difluoromethyl)-1H-pyrazol-4-yl)-N-((1S)-2-hydroxy-2-methyl-1-(4-(trifluoromethoxy)phenyl)propyl)pyrazolo[1,5-a]pyrimidine-3-carboxamide]
18 | 100% | COC[C@@H](NC(=O)c1cc(=O)[nH]c2cc(OC)cnc12)c1ccc(OC(F)(F)F)c(F)c1 [Example 152, N-((1S)-1-(3-fluoro-4-(trifluoromethoxy)phenyl)-2-methoxyethyl)-7-methoxy-2-oxo-1,2-dihydro-1,5-naphthyridine-4-carboxamide]
